Source: patent US5618814A, “Trisubstituted pyrimido [5,4-d] pyrimidines for modulating multi-drug resistance and pharmaceutical compositions containing these compounds” (Dr. Karl Thomae GmbH, priority 1993, dated 1997)
Like-named read-outs stand apart in the source and are kept apart here.

Tests used:
[1] = test system: adriamycin-resistant S 180 mouse sarcoma cells; assay: Cytotoxicity in proliferating adriamycin-resistant S 180 mouse sarcoma cells (MTT, 6 days) in the absence or presence of adriamycin; assay type: cell-based; settings: S-180, 144 h
Procedure: was tested on cells resistant to adriamycin as follows:
Proliferating, adriamycin-resistant S 180 mouse sarcoma cells were cultivated for six days in the presence of various concentrations of test substances. Concentrations of the test substances with a cytotoxic or cytostatic effect were indicated by reduced cell growth or by the cells dying off. The end point of the assay is the number of living cells per culture which is determined indirectly, making use of the property of vital cells to reduce the dye MTT [=3-(4,5-dimethylthiazol-2-yl)-2,5-diphenyltetrazoliumbromide] to coloured formazane. The IC50 denotes the concentration of a test substance which reduces the number of vital cells per culture vessel to 50% of the untreated control. […] Therefore, two IC50 values are obtained for each test substance, one in the presence of adriamycin (IC50 ADR), the other in the absence of adriamycin (IC50). The difference in the logarithms (to the base ten) of the two IC50 values: Δ=lgIC50-lgIC50 ADR is a measure of the increase in the cytotoxicity of the test substance brought about by adriamycin.
Exponentially growing adriamycin-resistant or adriamycin-sensitive S 180 cells were plated out in 96-well flat-bottomed microtitre dishes at a rate of 2000 cells per well in 100 μl of growth medium (RPMI-1640 containing 10% foetal calf serum). The culture dishes were incubated in an incubator at 37° C., 5% CO2 at 100% relative humidity. After 24 hours, 50 μl of growth medium containing various concentrations of test substance and 50 μl of growth medium with or without adriamycin were added to each well. Following a further 6-day cultivation period, 50 μl of tetrazolium salt solution [5 mg of 3-(4,5-dimethylthiazol-2-yl)-2,5-diphenyl-tetrazoliumbromide per ml of phosphate-buffered saline solution, diluted 1:5 (v/v) with RPMI-1640 before use] were pipetted into each well. After […] incubation the culture medium was carefully suction filtered and the formazane formed intracellularly was solubilised with 150 μl of dimethylsulphoxide per well. The dishes were briefly shaken and the optical density was measured at 570 nm with a photometer such as a Dynatech MR-600 apparatus. The formation of the coloured formazane by reduction of the tetrazolium salt is proportional to the number of living cells. The averages of three measurements were used to calculate the IC50 values (dilution stage: 1:2).

[2] = Tolerability after i.v. administration in mice; assay type: in vivo; settings: 100 mg/kg i.v. in mice
[3] = Adriamycin 0 ng/ml (absence of adriamycin), read-out: IC50
[4] = in presence of Adriamycin 100 ng/ml, read-out: IC50 (IC50 ADR)

SMILES | IC50 [1, 3] [µg/mL] | IC50 [1, 4] [µg/mL] | toxic side effects / tolerability [2]
CN(Cc1ccccc1)c1ncnc2c(N3CCOCC3)nc(N3CCC(N4CCCCC4)CC3)nc12 [Substance D, 8-(N-benzyl-N-methyl-amino)-2-[4-(piperidino)-piperidin-1-yl]-4-morpholino-pyrimido [5,4-d]pyrimidine] | 3 | 0.3 | –
CN(Cc1ccccc1)c1nc(N2CCC(N(C)C)CC2)nc2c(N3CCOCC3)ncnc12 [Substance F, 4-(N-benzyl-methyl-amino)-2-[4-(N,N-dimethylamino)-piperidino]-8-morpholino-pyrimido [5,4-d]pyrimidine] | 3 | 0.3 | –
CN(Cc1cccc2ccccc12)c1nc(N2CCC(N(C)C)CC2)nc2c(N3CCOCC3)ncnc12 [Substance K, 2-[4-(N,N-dimethylamino)-piperidino]-4-[N-(naphth-1-yl-methyl)-N-methyl-amino]-8-morpholino-pyrimido-[5,4-d]pyrimidine] | 3 | 0.1 | –
CN(Cc1cccc2ccccc12)c1ncnc2c(N3CCOCC3)nc(N3CCC(N(C)C)CC3)nc12 [Substance H, 2-[4-(N,N-dimethylamino)-piperidino]-8-[N-(naphth-1-yl-methyl)-N-methyl-amino]-4-morpholino-pyrimido [5,4-d]pyrimidine] | 3 | 0.1 | –
CN(Cc1ccccc1)c1nc(N2CCC(NCC(c3ccccc3)c3ccccc3)CC2)nc2c(N3CCOCC3)ncnc12 [Substance I, 2-[4-(2,2-diphenylethylamino)-piperidino]-4-(N-benzyl-N-methyl-amino)-8-morpholino-pyrimido-[5,4-d]pyrimidine] | 10 | 0.3 | –
COc1cc2c(cc1OC)CN(c1ncnc3c(N4CCOCC4)nc(N4CCC(N(C)C)CC4)nc13)CC2 [Substance G, 2-[4-(N,N-dimethylamino)-piperidino]-8-(6,7-dimethoxy-1,2,3,4-tetrahydro-isoquinolin-2-yl)-4-morpholino-pyrimido [5,4-d]pyrimidine] | 3 | 0.1 | did not lead to any detectable toxic side effects
CN(Cc1ccccc1)c1ncnc2c(N3CCCCC3)nc(N3CCC(N(C)C)CC3)nc12 [Substance C, 2-[4-(N,N-dimethylamino)-piperidino]-8-(N-benzyl-N-methyl-amino)-4-piperidino-pyrimido [5,4-d]pyrimidine] | 2 | 0.3 | –
CN(Cc1ccccc1)c1ncnc2c(N3CCOCC3)nc(N3CCC(N(C)C)CC3)nc12 [Substance A, 2-[4-(N,N-dimethylamino)-piperidino]-8-(N-benzyl-N-methyl-amino)-4-morpholino-pyrimido [5,4-d]pyrimidine] | 1 | 0.3 | –
CN(C)CC1CCN(c2nc(N3CCOCC3)c3ncnc(N(C)Cc4cccc5ccccc45)c3n2)CC1 [Substance E, 2-[4-(N,N-dimethylaminomethyl)-piperidino]-8-[N-(napth-1-yl-methyl)-N-methyl-amino]-4-morpholino-pyrimido [5,4-d]pyrimidine] | 3 | 0.1 | –
COC(=O)NC1CCN(c2nc(N3CCOCC3)c3ncnc(N(C)Cc4ccccc4)c3n2)CC1 [Substance B] | 10 | 1 | –
CN(C)C1CCN(c2nc(N3CCOCC3)c3ncnc(N(CCCNC(=O)c4ccccc4)Cc4ccccc4)c3n2)CC1 [Substance J, 2-[4-(N, N-dimethylamino)-piperidino]-8-[N-benzyl-N-(3-benzoylaminopropyl)-amino]-4-morpholino-pyrimido-[5,4-d]pyrimidine] | 3 | 0.1 | –
